Data on four substances can be found in article PMC6570535 (ACS infectious diseases, 2019).

No end group written: not given here. A value given as a limit tells only on which side of the number the result lay.

In experiment [1] the target is T1, fsr QS circuitry (Enterococcus faecalis, UniProt A0ACD6TCR9). Description: β-galactosidase cell-based bacterial reporter assay, QS activation. Conditions: E. faecalis pGelE-lacZ reporter strain.
The target in experiment [2] is T1, fsr QS circuitry. Description: β-galactosidase reporter assay, inhibition of competitor GBAP signal. The experiment is classed as cell-based, E. faecalis. Conditions: competition with GBAP. Background: In a reporter assay the amount or activity of a reporter protein is the signal.
For experiment [3], the target named is T1, fsr QS circuitry. Conditions: read-out: EC50 [95% CI]; previously published analog shown for comparison; ref [19]; cited from earlier work.

One may read the EC50 as the concentration giving half of the maximal effect.

For the substance Ac-GBAP-Des(Q1N2)[N-MeQ9] [Peptide 8], the “activity as activator” value at fsr QS circuitry [1] is “lost all activity”. In addition, on fsr QS circuitry [2], the “inhibitory activity” value is “neither of these three analogs exhibit any inhibitory activity”.

For Ac-GBAP-Des(Q1N2)[N-MeG8] [Peptide 7], the “activity as activator” value at fsr QS circuitry [1] is given as “lost all activity”. In addition, on fsr QS circuitry [2], the “inhibitory activity” value is given as “neither of these three analogs exhibit any inhibitory activity”.

As to “Ac-GBAP-Des(Q1N2) (Ac-SPNIFGQWM; also: cyclic, ring not given here) [Peptide 2]”, in the experiment with fsr QS circuitry [3], the EC50 is 1.01 nM.

As for GBAP-F7A, on fsr QS circuitry [3], the EC50 was more than 1000 nM.
